For test [1], the system named is E. coli BW25113. It is filed as cell-based, Escherichia coli. An outline of the steps:
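For MIC, bacteria (final OD600 ~0.0002) were incubated with 2-fold peptide dilutions (top 400–800 μM) in cation-adjusted MHB II with or without EDTA, 20 h at 37 °C, read by OD600. EDTA was 0.5 mM for E. coli and 0.125 mM for USA300. The growth-inhibition assay used log-phase cells at OD600 ~0.001, 4 h at 37 °C, BacTiter-Glo luminescence.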

Test [2] has as its system P. aeruginosa. The test is classed as cell-based, Pseudomonas aeruginosa. How it is done: (§1) Bacterial growth conditions. LB or Mueller Hinton II cation-adjusted broth (MHB II, BBL 212322) was prepared according to manufacturer's instructions and supplemented with arabinose at 0.02% for overnight growth or at indicated concentrations in the description of the figures. Bacterial cultures were grown at 37° C. When appropriate, media was supplemented with kanamycin (50 μg/mL), carbenicillin (50 μg/mL), chloramphenicol (12.5 or 25 μg/mL), hygromycin (200 μg/mL), and/or gentamicin (10 μg/mL).
(§2) Peptide sensitivity and MIC assays. Lyophilized peptides (Smartox Biotechnology, CPC Scientific. ABclonal) were solubilized to 10 mM in Tris buffer, pH 8, prior to making a 2-fold dilution series in MHBII cation adjusted broth with highest final assay concentration of 400-800 μM. Bacteria were grown to log phase and added to final OD600˜0.001. The final EDTA concentration was 0.5 mM for E. coli strains and 0.125 mM for USA300. The final volume of 10 μL/well in a 384 well black, clear bottom plate (Corning) was spun <1 min at <250×g and then incubated at 37° C. After 4 h, an equal volume (10 μL) of BacTiter-Glo™ (Promega) was added to each well and luminescence was read after 5 min on an EnVision plate reader (PerkinElmer). To measure the minimal inhibitory concentrations (MICs), bacteria from fresh overnight plates or log phase cultures were diluted with or without EDTA and peptides as described above to final OD600˜0.0002. Plates were incubated at 37° C. for 20 h before measuring OD600 with an EnVision plate reader.

The test system of test [3] is K. pneumoniae. It is filed as cell-based, Klebsiella pneumoniae. Here is the method:
as §1, §2

In test [4] the test system is A. baumannii. It is filed as cell-based, Acinetobacter baumannii. How it is done: as §1, §2

≈ marks a conversion by molar mass, not a printed value. Where two headings read alike, the source gives them in different places. Square brackets hold non-standard residues; d marks the D form. Peptide text beside a SMILES is read from it. Bip = N[C@@H](Cc1ccc(-c2ccccc2)cc1)C(=O)O; hPhe = N[C@@H](CCc1ccccc1)C(=O)O; hSer = N[C@@H](CCO)C(=O)O; Dap = NC[C@H](N)C(=O)O; Aib = CC(C)(N)C(=O)O A value given as a limit tells only on which side of the number the result lay.

As to `CSCC[C@H](NC(=O)[C@@H]1CCCN1C(=O)[C@H](Cc1ccc(O)cc1)NC(C)=O)C(=O)N[C@H](C(=O)N[C@@H](C)C(=O)N[C@@H](CCCNC(=N)N)C(=O)N[C@@H](CCCNC(=N)N)C(=O)N[C@@H](Cc1ccccc1)C(=O)N[C@@H](CC(C)C)C(=O)N[C@@H](CCO)C(=O)N[C@@H](CCCCN)C(=O)N[C@@H](Cc1c[nH]c2ccccc12)C(=O)NCC(=O)N[C@@H](CC(C)C)C(=O)N[C@@H](CC(C)C)C(=O)N[C@@H](CCCNC(=N)N)C(N)=O)[C@@H](C)O` [compound 85] (Ac-YPMTARRFL[hSer]KWGLLR-NH2), in test [1] (Table 8), the “MIC E. coli BW25113” value came to 200.0 µM (≈ 410 µg/mL). Besides, the “MIC R. aeruginosa” value in test [2] (Table 8) was 200.0 µM (≈ 410 µg/mL). For the same compound, the “MIC K. pneumoniae” value in test [3] (Table 8) turned out to be 200.0 µM (≈ 410 µg/mL). Moreover, the “MIC A. baumannii” value in test [4] (Table 8) came out at 100.0 µM (≈ 205 µg/mL).

`CSCC[C@H](NC(=O)[C@@H]1CCCN1C(=O)[C@H](Cc1ccc(O)cc1)NC(C)=O)C(=O)N[C@@H](CN)C(=O)N[C@@H](C)C(=O)N[C@@H](CCCNC(=N)N)C(=O)N[C@@H](CCCNC(=N)N)C(=O)N[C@@H](Cc1ccccc1)C(=O)N[C@@H](CC(C)C)C(=O)N[C@@H](C)C(=O)N[C@@H](CCCCN)C(=O)N[C@@H](Cc1c[nH]c2ccccc12)C(=O)NCC(=O)N[C@@H](CC(C)C)C(=O)N[C@@H](CC(C)C)C(=O)N[C@@H](CCCNC(=N)N)C(N)=O` [compound 86] (Ac-YPM[Dap]ARRFLAKWGLLR-NH2): the “MIC E. coli BW25113” value in test [1] (Table 8) was 25.0 µM (≈ 50.1 µg/mL). In addition, the “MIC R. aeruginosa” value in test [2] (Table 8) stood at 50.0 µM (≈ 100 µg/mL). Moreover, in test [3] (Table 8), the “MIC K. pneumoniae” value came to 50.0 µM (≈ 100 µg/mL). For the same compound, the “MIC A. baumannii” value in test [4] (Table 8) was found to be 25.0 µM (≈ 50.1 µg/mL).

Turning to `CSCC[C@H](NC(=O)[C@@H]1CCCN1C(=O)[C@H](Cc1ccc(O)cc1)NC(C)=O)C(=O)N[C@H](C(=O)N[C@@H](C)C(=O)N[C@@H](CCCNC(=N)N)C(=O)N[C@@H](CCCNC(=N)N)C(=O)N[C@@H](Cc1ccc(-c2ccccc2)cc1)C(=O)N[C@@H](CC(C)C)C(=O)N[C@@H](C)C(=O)N[C@@H](CCCCN)C(=O)N[C@@H](Cc1c[nH]c2ccccc12)C(=O)NCC(=O)N[C@@H](CC(C)C)C(=O)N[C@@H](CC(C)C)C(=O)N[C@@H](CCCNC(=N)N)C(N)=O)[C@@H](C)O` [compound 88] (Ac-YPMTARR[Bip]LAKWGLLR-NH2), the “MIC E. coli BW25113” value in test [1] (Table 8) was 100.0 µM (≈ 210 µg/mL). For the same compound, the “MIC R. aeruginosa” value in test [2] (Table 8) was 25.0 µM (≈ 52.4 µg/mL). The “MIC K. pneumoniae” value in test [3] (Table 8) turned out to be 25.0 µM (≈ 52.4 µg/mL). In addition, in test [4] (Table 8), the “MIC A. baumannii” value is 12.5 µM (≈ 26.2 µg/mL).

Consider `CSCC[C@H](NC(=O)[C@H](CN)NC(=O)[C@H](CCSC)NC(=O)[C@@H]1CCCN1C(=O)[C@H](Cc1ccc(O)cc1)NC(C)=O)C(=O)N[C@@H](CCCNC(=N)N)C(=O)N[C@@H](CCCNC(=N)N)C(=O)N[C@@H](Cc1c[nH]c2ccccc12)C(=O)N[C@@H](CC(C)C)C(=O)N[C@@H](CCC(=O)O)C(=O)N[C@@H](CCCCN)C(=O)N[C@@H](Cc1c[nH]c2ccccc12)C(=O)NCC(=O)N[C@@H](CC(C)C)C(=O)N[C@@H](CC(C)C)C(=O)N[C@@H](CCCNC(=N)N)C(N)=O` [compound 89] (Ac-YPM[Dap]MRRWLEKWGLLR-NH2), for which the “MIC E. coli BW25113” value in test [1] (BW25113) worked out at 25.0 µM (≈ 54.1 µg/mL). In addition, the “MIC R. aeruginosa” value in test [2] was 100.0 µM (≈ 216 µg/mL). Besides, in test [3], the “MIC K. pneumoniae” value turned out to be 25.0 µM (≈ 54.1 µg/mL). Also, in test [4], the “MIC A. baumannii” value was determined as 25.0 µM (≈ 54.1 µg/mL).

`CSCC[C@H](NC(=O)[C@@H]1CCCN1C(=O)[C@H](Cc1ccc(O)cc1)NC(C)=O)C(=O)N[C@@H](CN)C(=O)N[C@@H](Cc1ccccc1)C(=O)N[C@@H](CCCNC(=N)N)C(=O)N[C@@H](CCCNC(=N)N)C(=O)N[C@@H](Cc1ccc(-c2ccccc2)cc1)C(=O)N[C@@H](CC(C)C)C(=O)N[C@@H](CCC(=O)O)C(=O)N[C@@H](CCCCN)C(=O)N[C@@H](Cc1c[nH]c2ccccc12)C(=O)NCC(=O)N[C@@H](CC(C)C)C(=O)N[C@@H](CC(C)C)C(=O)N[C@@H](CCCNC(=N)N)C(N)=O` [compound 90] (Ac-YPM[Dap]FRR[Bip]LEKWGLLR-NH2): in test [1] (Table 8), the “MIC E. coli BW25113” value turned out to be 200.0 µM (≈ 443 µg/mL). The “MIC R. aeruginosa” value in test [2] (Table 8) came to 25.0 µM (≈ 55.4 µg/mL). Moreover, in test [3] (Table 8), the “MIC K. pneumoniae” value turned out to be 50.0 µM (≈ 111 µg/mL). Besides, in test [4] (Table 8), the “MIC A. baumannii” value worked out at 6.25 µM (≈ 13.8 µg/mL).

Take `CC(=O)N[C@@H](Cc1ccc(O)cc1)C(=O)N1CCC[C@H]1C(=O)N[C@@H](CCc1ccccc1)C(=O)N[C@H](C(=O)N[C@@H](C)C(=O)N[C@@H](CCCNC(=N)N)C(=O)N[C@@H](CCCNC(=N)N)C(=O)N[C@@H](Cc1ccccc1)C(=O)N[C@@H](CC(C)C)C(=O)N[C@@H](CCC(=O)O)C(=O)N[C@@H](CCCCN)C(=O)N[C@@H](Cc1c[nH]c2ccccc12)C(=O)NCC(=O)N[C@@H](CC(C)C)C(=O)N[C@@H](CC(C)C)C(=O)N[C@@H](CCCNC(=N)N)C(N)=O)[C@@H](C)O` [compound 91] (Ac-YP[hPhe]TARRFLEKWGLLR-NH2): the “MIC E. coli BW25113” value in test [1] (Table 8) was determined as 50.0 µM (≈ 105 µg/mL). Further, in test [2] (Table 8), the “MIC R. aeruginosa” value is greater than 400.0 µM. In addition, the “MIC K. pneumoniae” value in test [3] (Table 8) was greater than 400.0 µM. Besides, the “MIC A. baumannii” value in test [4] (Table 8) was found to be 50.0 µM (≈ 105 µg/mL).

For the compound `CSCC[C@H](NC(=O)[C@@H]1CCCN1C(=O)[C@H](Cc1ccc(O)cc1)NC(C)=O)C(=O)N[C@H](C(=O)N[C@H](C)C(=O)N[C@@H](CCCNC(=N)N)C(=O)N[C@@H](CCCNC(=N)N)C(=O)N[C@@H](Cc1ccccc1)C(=O)N[C@@H](CC(C)C)C(=O)N[C@@H](CCC(=O)O)C(=O)N[C@@H](CCCCN)C(=O)N[C@@H](Cc1c[nH]c2ccccc12)C(=O)NCC(=O)N[C@@H](CC(C)C)C(=O)N[C@@H](CC(C)C)C(=O)N[C@@H](CCCNC(=N)N)C(N)=O)[C@@H](C)O` [compound 92] (Ac-YPMT[dA]RRFLEKWGLLR-NH2), the “MIC E. coli BW25113” value in test [1] (Table 8) was found to be 200.0 µM (≈ 416 µg/mL). Moreover, the “MIC R. aeruginosa” value in test [2] (Table 8) was greater than 400.0 µM. Moreover, the “MIC K. pneumoniae” value in test [3] (Table 8) was greater than 400.0 µM. In test [4] (Table 8), the “MIC A. baumannii” value turned out to be 200.0 µM (≈ 416 µg/mL).

On to `CSCC[C@H](NC(=O)[C@@H]1CCCN1C(=O)[C@H](Cc1ccc(O)cc1)NC(C)=O)C(=O)N[C@H](C(=O)NC(C)(C)C(=O)N[C@@H](CCCNC(=N)N)C(=O)N[C@@H](CCCNC(=N)N)C(=O)N[C@@H](Cc1ccccc1)C(=O)N[C@@H](CC(C)C)C(=O)N[C@@H](CCC(=O)O)C(=O)N[C@@H](CCCCN)C(=O)N[C@@H](Cc1c[nH]c2ccccc12)C(=O)NCC(=O)N[C@@H](CC(C)C)C(=O)N[C@@H](CC(C)C)C(=O)N[C@@H](CCCNC(=N)N)C(N)=O)[C@@H](C)O` [compound 93] (Ac-YPMT[Aib]RRFLEKWGLLR-NH2), for which, in test [1] (Table 8), the “MIC E. coli BW25113” value amounted to 200.0 µM (≈ 419 µg/mL). The “MIC R. aeruginosa” value in test [2] (Table 8) is greater than 400.0 µM. Further, in test [3] (Table 8), the “MIC K. pneumoniae” value was 400.0 µM (≈ 837 µg/mL). For the same compound, in test [4] (Table 8), the “MIC A. baumannii” value turned out to be 50.0 µM (≈ 105 µg/mL).

In the case of `CSCC[C@H](NC(=O)[C@@H]1CCCN1C(=O)[C@H](CCCNC(=N)N)NC(C)=O)C(=O)N[C@H](C(=O)N[C@@H](C)C(=O)N[C@@H](CCCNC(=N)N)C(=O)N[C@@H](CCCNC(=N)N)C(=O)N[C@@H](Cc1ccc(-c2ccccc2)cc1)C(=O)N[C@@H](CC(C)C)C(=O)N[C@@H](CCC(=O)O)C(=O)N[C@@H](CCCCN)C(=O)N[C@@H](Cc1c[nH]c2ccccc12)C(=O)NCC(=O)N[C@@H](CC(C)C)C(N)=O)[C@@H](C)O` [compound 207] (Ac-RPMTARR[Bip]LEKWGL-NH2), in test [1] (Table 8), the “MIC E. coli BW25113” value was 100.0 µM (≈ 188 µg/mL). The “MIC R. aeruginosa” value in test [2] (Table 8) worked out at 100.0 µM (≈ 188 µg/mL). Further, the “MIC K. pneumoniae” value in test [3] (Table 8) is 100.0 µM (≈ 188 µg/mL). Besides, the “MIC A. baumannii” value in test [4] (Table 8) was 100.0 µM (≈ 188 µg/mL).
